From ChEMBL document CHEMBL1148196, “Isoprenoids of the soft coral Sarcophyton glaucum: Nyalolide, a new biscembranoid, and other terpenoids” (2004)

Key:
Assay type in all cases: functional
[1] = system: P388; assay: Cytotoxicity against mouse P388 cells
[2] = system: A549; assay: Cytotoxicity against human A549 cells
[3] = system: HT-29; assay: Cytotoxicity against human HT29 cells
[4] = system: SK-MEL-28; assay: Cytotoxicity against human SK-MEL-28 cells

Measured: GI50

COC(=O)[C@]12CC(=O)[C@H](C(C)C)CC(=O)[C@H](C)CCC[C@H](C)CC(=O)[C@H]1CC(C)=C1C[C@H](OC(C)=O)[C@](C)(O)[C@H]3CC[C@@](C)(O)[C@H](CC/C(C)=C/[C@@H]12)O3 [NYALOLIDE]
10 µM: all assays above

CC(C)=C1C=C2[C@@H](CC[C@@H]2C)[C@@H](C)CC1=O [GUAIACOPHINE]
10 µM: all assays above

COC(=O)/C1=C\CC/C(C)=C/[C@@H]2OC(=O)C(C)=C2C[C@H](OC(C)=O)/C(C)=C/CC1
10 µM: all assays above
